“And” between values parts separate entries of the source, which are not always exact repeats. Equal values may be shown once. Where a name gives a salt, the structure may show the parent alone.
Key:
patients with FMS = settings: open-label, cited from earlier work
[1] = system: patients who met the 1990 ACR criteria for fibromyalgia syndrome; assay: Example 1 study: MASQ total score (cognitive function), change from baseline; format: in vivo, human; parameters: MASQ Total Score - Change from Baseline: scale not given here
Description: (§1) This was a multi-center, randomized, double-blinded, placebo-controlled three-arm study, which enrolled 888 patients who met the 1990 ACR criteria for fibromyalgia syndrome as well as the more detailed admission criteria outlined in the protocol.
(§2) All randomized medications (placebo and milnacipran) were administered in a split-dose (BID) fashion. The doses were administered in a dose escalation regimen as outlined below:
d. FMS Status Assessments: Patient pain 24 hour and 7 day recall VAS, the SF-36, Multiple Ability Self-report Questionnaire (MAS Q, cognitive function), the Multidimensional Health Assessment Questionnaire (MDHAQ) and the Multidimensional Fatigue Inventory (MFI). Diary assessments include current pain (morning, random daily, and evening reports); daily recall pain (morning report); medications taken (evening report); overall pain past week (weekly report), overall fatigue in the last week (weekly report), and the extent that pain kept the patient from caring for themselves (weekly report).
The MASQ is a brief self-report questionnaire, which includes 5 cognitive domains: language ability, visuo-perceptual ability, verbal memory, visual memory, and attention/concentration (Seidenberg et al., J Clin & Exp Neuropsychology 1994; 16:93-104). The MASQ has been validated in both normal subjects and patient groups having cognitive difficulties in the assessment domains.

fibromyalgia patients [2] = settings: cited from earlier work
[3] = system: patients who meet the 1990 ACR criteria for fibromyalgia syndrome; assay: Example 2 study: MASQ total score, 3-month treatment period; format: in vivo, human; parameters: MASQ total score, Actual, Mean / MASQ total score, Change from baseline, Mean / MASQ total score, Actual, Median / MASQ total score, Change from baseline, Median: scale not given here; settings: for MASQ total score change, Difference from Placebo / MASQ total score, Change from baseline, LS Mean (SE): 3-month (LOCF), ITT, ANCOVA model; for MASQ total score, Actual, Mean / MASQ total score, Actual, Median / MASQ total score, Change from baseline, Mean / MASQ total score, Change from baseline, Median: 3-month treatment period (LOCF), intent-to-treat
Description: This was a multicenter, randomized, double-blind, placebo-controlled three-arm study designed which enrolled 1196 patients who meet the 1990 ACR criteria for fibromyalgia syndrome (history of widespread pain and pain in 11 of 18 tender point sites on digital palpation), as well as the more detailed admission criteria outlined in the protocol.
All randomized medications (placebo and milnacipran) were administered twice a day (BID).
(iii) Additional Efficacy Measurements: The Fibromyalgia Impact Questionnaire (FIQ) total score and physical function, Beck Depression Inventory (BDI), the MOS-Sleep Index Scale, the Arizona Sexual Experiences Scale (ASEX), Patient pain 24 hour and 7 day recall VAS, the SF-36 individual domains, Patient Global Disease Status, Patient Global Therapeutic Benefit, the Multiple Ability Self-report Questionnaire (MASQ, cognitive function), the Multidimensional Health Assessment Questionnaire (MDHAQ), Multidimensional Fatigue Inventory (MFI), and diary assessments including current pain (morning, random daily, and evening reports); overall pain past week (weekly report), overall fatigue in the last week (weekly report), and the extent that pain kept the patient from caring for themselves (weekly report).

[4] = system: patients who met the 1990 ACR criteria for fibromyalgia syndrome; assay: Example 1 study: composite responder analysis for pain of fibromyalgia (pain reduction plus PGIC); format: in vivo, human; settings: for Responders for the treatment of the pain of fibromyalgia, % = m/n: observed cases (OC), hydrochloride; for Responders for the treatment of the pain of fibromyalgia, m (number of responders): observed cases
Description: as §1, §2
The primary endpoint of this study was a composite responder analysis implementing analysis of three domains of interest, evaluated at […]. The domains measured were:
1) pain (measured by an electronic diary as a daily recall pain score, calculated to weekly average scores)
2) patient global (measured by the PGIC, 1-7 scale)
For the primary analysis, the pain domain score was determined by a calculation that compared the average of treatment weeks 14 and 15 to the two baseline weeks, and treatment weeks 26 and 27 vs. baseline for the secondary analysis. The last observation was carried forward if neither the week 14 nor week 15 (or week 26/27) patient self-reported pain score is available to compare to the baseline value.
A responder was defined as a subject who experienced a greater than 30% reduction in pain from baseline and improvement on the PGIC.
See Table 1 for a summary of the results in the Intent-to-Treat Population and Table 2 for a summary of the Last Observation Carried Forward (LOCF), Baseline Observation Carried Forward (BOCF) and study completer (OC) populations. LOCF is an analysis in which observations are carried forward to the last time point for patients who dropped out. The LOCF analysis treats the carried-forward data as observed data at the last time point. BOCF is an analysis that requires that the patient remain active in the trial to be evaluated for response. If a patient withdraws from the trial for any reason they are classed as a non-responder irregardless of their pain and global scores at the time of withdrawal.

fibromyalgia patients [5] = settings: cited from earlier work; remark: listed apart in the source
[6] = system: subjects suffering from fibromyalgia syndrome; settings: cited from earlier work; for Subjects with significant clinical improvement: after one month; for Difference between treatment group and placebo: at three months

COc1ccc(C(CN(C)C)C2(O)CCCCC2)cc1 (stereo not shown) [venlafaxine]
Completing patients with insomnia requiring adjunctive medical therapy (patients with FMS; 11 completing patients): 3 of 11
Completing patients with a positive response (50% or greater improvement in two measurements of overall pain) (patients with FMS; 15 patients, 11 completing): Six of 11

CCN(CC)C(=O)C1(c2ccccc2)CC1CN (racemic) [milnacipran, Z-2-aminomethyl-1-phenyl-N,N-diethylcyclopropanecarboxamide hydrochloride]
Treatment of cognitive dysfunction associated with FMS (change in MASQ total score), comparison with placebo ([1]; 100 mg/day vs placebo): superior to placebo
MASQ Total Score - Change from Baseline ([1]; 100 mg, treatment week 3): −0.39
MASQ Total Score - Change from Baseline ([1]; 100 mg, treatment week 7): −0.34
MASQ Total Score - Change from Baseline ([1]; 100 mg, treatment week 11): −1.33
MASQ Total Score - Change from Baseline ([1]; 100 mg, treatment week 15): −1.18
MASQ Total Score - Change from Baseline ([1]; 100 mg, treatment week 19): −1.60
MASQ Total Score - Change from Baseline ([1]; 100 mg, treatment week 23): −0.89
MASQ Total Score - Change from Baseline ([1]; 100 mg, treatment week 27): −1.07
Treatment of cognitive dysfunction associated with FMS (change in MASQ total score), 200 mg/day compared with 100 mg/day ([1]; 200 mg/day vs 100 mg/day): superior to milnacipran 100 mg/day
Treatment of cognitive dysfunction associated with FMS (change in MASQ total score), comparison with placebo ([1]; 200 mg/day vs placebo): superior to placebo
MASQ Total Score - Change from Baseline ([1]; 200 mg, treatment week 3): −1.60
MASQ Total Score - Change from Baseline ([1]; 200 mg, treatment week 7): −1.77
MASQ Total Score - Change from Baseline ([1]; 200 mg, treatment week 11): −1.73
MASQ Total Score - Change from Baseline ([1]; 200 mg, treatment week 15): −1.76
MASQ Total Score - Change from Baseline ([1]; 200 mg, treatment week 19): −1.63
MASQ Total Score - Change from Baseline ([1]; 200 mg, treatment week 23): −1.52
MASQ Total Score - Change from Baseline ([1]; 200 mg, treatment week 27): −1.89
Deaths or serious adverse events associated with treatment (fibromyalgia patients [2]; Phase II study): no deaths or serious adverse events
Patients with adverse events from elevation in hepatic enzymes (fibromyalgia patients [2]; milnacipran-treated patients): 2%
MASQ total score change, Difference from Placebo ([3]; 100 mg): −1.13
MASQ total score, Change from baseline, LS Mean (SE) ([3]; 100 mg): −3.93 (0.786)
MASQ total score, Actual, Mean ([3]; 100 mg): 88.86
MASQ total score, Actual, Median ([3]; 100 mg): 89.0
MASQ total score, Change from baseline, Mean ([3]; 100 mg): −3.34
MASQ total score, Change from baseline, Median ([3]; 100 mg): −3.0
MASQ total score change, Difference from Placebo ([3]; 200 mg): −1.12
MASQ total score, Change from baseline, LS Mean (SE) ([3]; 200 mg): −4.51 (0.797)
MASQ total score, Actual, Mean ([3]; 200 mg): 89.63
MASQ total score, Actual, Median ([3]; 200 mg): 90.5
MASQ total score, Change from baseline, Mean ([3]; 200 mg): −3.75
MASQ total score, Change from baseline, Median ([3]; 200 mg): −3.0
Responders for the treatment of the pain of fibromyalgia, % = m/n ([4]; 100 mg/day BID, treatment weeks 14-15 (3 month)): 53.33% and 53.3%
Responders for the treatment of the pain of fibromyalgia, % = m/n ([4]; 100 mg/day BID, treatment weeks 14-15 (3 month), listed as Milnacipran): 53.33%
Responders for the treatment of the pain of fibromyalgia, % = m/n ([4]; 100 mg/day BID, treatment weeks 26-27 (6 month)): 49.59% and 49.6%
Responders for the treatment of the pain of fibromyalgia, % = m/n ([4]; 100 mg/day BID, treatment weeks 26-27 (6 month), listed as Milnacipran): 49.59%
Long-term treatment of fibromyalgia and some of its symptoms, low dose compared with high dose ([4]; 100 mg/day vs 200 mg/day, continued administration): almost as effective as continued administration of high-dose milnacipran
Responders for the treatment of the pain of fibromyalgia, m (number of responders) ([4]; 100 mg/day, treatment weeks 14-15, n = 135): 72
Responders for the treatment of the pain of fibromyalgia, m (number of responders) ([4]; 100 mg/day, treatment weeks 26-27, n = 121): 60
Individual component responder rate, PGIC (LOCF) ([4]; 100 mg, 3 month): 54.0%
Individual component responder rate, Pain (LOCF) ([4]; 100 mg, 3 month): 35.7%
Pain composite responder rate, Sensitivity Analysis I (BOCF) ([4]; 100 mg, 3 month): 32.1%
Pain composite responder rate, Sensitivity Analysis II ([4]; 100 mg, 3 month): 32.%
Pain composite responder rate, Sensitivity Analysis III ([4]; 100 mg, 3 month): 32.1%
Pain composite responder rate, Primary Analysis (LOCF) ([4]; 100 mg, 3 month, N = 224): 33.5%
Individual component responder rate, PGIC (LOCF) ([4]; 100 mg, 6 month): 49.6%
Individual component responder rate, Pain (LOCF) ([4]; 100 mg, 6 month): 35.7%
Pain composite responder rate, Sensitivity Analysis I (BOCF) ([4]; 100 mg, 6 month): 26.8%
Pain composite responder rate, Sensitivity Analysis II ([4]; 100 mg, 6 month): 27.2%
Pain composite responder rate, Sensitivity Analysis III ([4]; 100 mg, 6 month): 29.5%
Pain composite responder rate, Primary Analysis (LOCF) ([4]; 100 mg, 6 month, N = 224): 30.8%
Responders for the treatment of the pain of fibromyalgia, % = m/n ([4]; 200 mg/day BID, treatment weeks 14-15 (3 month)): 55.0%
Responders for the treatment of the pain of fibromyalgia, % = m/n ([4]; 200 mg/day BID, treatment weeks 14-15 (3 month), listed as Milnacipran): 55.00%
Responders for the treatment of the pain of fibromyalgia, % = m/n ([4]; 200 mg/day BID, treatment weeks 26-27 (6 month)): 51.74% and 51.7%
Responders for the treatment of the pain of fibromyalgia, % = m/n ([4]; 200 mg/day BID, treatment weeks 26-27 (6 month), listed as Milnacipran): 51.74%
Responders for the treatment of the pain of fibromyalgia, m (number of responders) ([4]; 200 mg/day, treatment weeks 14-15, n = 260): 143
Responders for the treatment of the pain of fibromyalgia, m (number of responders) ([4]; 200 mg/day, treatment weeks 26-27, n = 230): 119
Individual component responder rate, PGIC (LOCF) ([4]; 200 mg, 3 month): 50.6%
Individual component responder rate, Pain (LOCF) ([4]; 200 mg, 3 month): 38.3%
Pain composite responder rate, Sensitivity Analysis I (BOCF) ([4]; 200 mg, 3 month): 32.4%
Pain composite responder rate, Sensitivity Analysis II ([4]; 200 mg, 3 month): 32.7%
Pain composite responder rate, Sensitivity Analysis III ([4]; 200 mg, 3 month): 32.4%
Pain composite responder rate, Primary Analysis (LOCF) ([4]; 200 mg, 3 month, N = 441): 34.9%
Individual component responder rate, PGIC (LOCF) ([4]; 200 mg, 6 month): 49.9%
Individual component responder rate, Pain (LOCF) ([4]; 200 mg, 6 month): 35.4%
Pain composite responder rate, Sensitivity Analysis I (BOCF) ([4]; 200 mg, 6 month): 27.0%
Pain composite responder rate, Sensitivity Analysis II ([4]; 200 mg, 6 month): 28.6%
Pain composite responder rate, Sensitivity Analysis III ([4]; 200 mg, 6 month): 29.9%
Pain composite responder rate, Primary Analysis (LOCF) ([4]; 200 mg, 6 month, N = 441): 32.2%
Acute (short-term) therapy for the symptom of pain in FMS (fibromyalgia patients [5]; 100 mg BID): effective acute (short-term) therapy
Effect on fatigue, mood, global wellness, and function, BID compared with QD dosing (fibromyalgia patients [5]; BID vs QD, up to 200 mg/day): approximately equally effective
Treating pain, twice-daily dosing compared with QD dosing (fibromyalgia patients [5]; BID vs QD, up to 200 mg/day): more effective in treating pain than QD dosing
PGIC: completers who reported an improvement in their overall status (fibromyalgia patients [5]; both milnacipran treatment groups (BID and QD), up to 200 mg/day): over 70%
PGIC: completers who reported worsening (fibromyalgia patients [5]; milnacipran treatment groups, up to 200 mg/day): 10%

CN(C)CCC=C1c2ccccc2C=Cc2ccccc21 [cyclobenzaprine]
Subjects with significant clinical improvement [6]: 12%
Difference between treatment group and placebo [6]: no difference

CN(C)CCC=C1c2ccccc2CCc2ccccc21 [amitriptyline]
Subjects with significant clinical improvement [6]: 21%
Difference between treatment group and placebo [6]: no difference

Reference: patent US20080058318A1 (priority 2006, published 2008)
